Experimental data: patent US20260297042A1, “BIARYLAMIDE DERIVATIVES AND THEIR USE AS PKMYT1 INHIBITORS” (CANCER RESEARCH TECHNOLOGY LIMITED, priority 2023, published 2026)

Columns and labels:
WEE1 = biological target: T1, WEE1 (Homo sapiens, UniProt P30291); test: Selectivity versus WEE1 assay (ADP-Glo enzymatic assay); type: biochemical; settings: for IC50: WEE1 15 nM, ADP-Glo, banded values; for PKMYT1 vs. WEE1 selectivity: fold difference in selectivity for PKMYT1 over WEE1, banded
T1 construct: purchased Thermo Fisher PR7373A
T1 sequence (P30291 whole entry): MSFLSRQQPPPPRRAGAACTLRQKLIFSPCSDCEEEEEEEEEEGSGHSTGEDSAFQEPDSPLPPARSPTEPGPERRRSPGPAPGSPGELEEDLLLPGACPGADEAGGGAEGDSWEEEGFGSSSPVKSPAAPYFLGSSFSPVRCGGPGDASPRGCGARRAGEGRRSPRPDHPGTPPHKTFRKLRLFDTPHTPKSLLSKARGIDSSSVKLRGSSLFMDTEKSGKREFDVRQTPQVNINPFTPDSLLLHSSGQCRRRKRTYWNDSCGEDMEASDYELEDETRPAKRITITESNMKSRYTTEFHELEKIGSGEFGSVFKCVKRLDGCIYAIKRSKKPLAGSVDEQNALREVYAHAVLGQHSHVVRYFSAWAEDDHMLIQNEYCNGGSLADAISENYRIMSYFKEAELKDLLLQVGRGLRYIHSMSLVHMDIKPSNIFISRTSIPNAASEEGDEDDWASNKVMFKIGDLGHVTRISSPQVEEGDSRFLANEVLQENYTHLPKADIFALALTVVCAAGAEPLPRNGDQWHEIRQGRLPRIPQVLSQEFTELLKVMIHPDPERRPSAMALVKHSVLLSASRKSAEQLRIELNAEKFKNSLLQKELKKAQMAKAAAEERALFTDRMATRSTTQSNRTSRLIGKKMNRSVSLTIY
How it was run: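 Kinase at 15 nM final in 50 mM HEPES pH 7.5, 10 mM MgCl2, 1 mM EGTA, 0.01% Brij-35, 1% DMSO was started with 30 µM ATP and run 60 min at 26° C. ADP formed was read by ADP-Glo luminescence; IC50 came from dose-response curves.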

OVCAR 3 cells = test: Cancer cell line proliferation assay, ATP-based cell viability (Cell Titre Glow), OVCAR 3 (CCNE1-amplified); settings: KYSE30 (normal CCNE1) GI50 vs. OVCAR 3 (CCNE1-amplified) GI50
How it was run: (§1)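 CellTiter-Glo luminescence endpoint; PKMYT1 inhibitor exposure; GI50 = conc. for 50% growth inhibition, curve-fitted.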

KYSE-30 cells = test: Cancer cell line proliferation assay, ATP-based cell viability (Cell Titre Glow), KYSE-30 (normal CCNE1); settings: Homo sapiens, KYSE-30 cells (normal CCNE1), concentration that achieves 50% cell growth proliferation inhibition, read-out: KYSE30 Gl50
How it was run: as §1

[1] = biological target: T2, Cellular PKMYT1 Biomarker CDK1 pT14 (Homo sapiens, UniProt Q99640); test: Inhibition of cellular PKMYT1 biomarker CDK1 pT14 in OVCAR 3 cells (immunoblot); type: cell-based; settings: 20 hours incubation
T2 construct: read-out CDK1 phospho-T14 immunoblot
T2 sequence (Q99640 1-499): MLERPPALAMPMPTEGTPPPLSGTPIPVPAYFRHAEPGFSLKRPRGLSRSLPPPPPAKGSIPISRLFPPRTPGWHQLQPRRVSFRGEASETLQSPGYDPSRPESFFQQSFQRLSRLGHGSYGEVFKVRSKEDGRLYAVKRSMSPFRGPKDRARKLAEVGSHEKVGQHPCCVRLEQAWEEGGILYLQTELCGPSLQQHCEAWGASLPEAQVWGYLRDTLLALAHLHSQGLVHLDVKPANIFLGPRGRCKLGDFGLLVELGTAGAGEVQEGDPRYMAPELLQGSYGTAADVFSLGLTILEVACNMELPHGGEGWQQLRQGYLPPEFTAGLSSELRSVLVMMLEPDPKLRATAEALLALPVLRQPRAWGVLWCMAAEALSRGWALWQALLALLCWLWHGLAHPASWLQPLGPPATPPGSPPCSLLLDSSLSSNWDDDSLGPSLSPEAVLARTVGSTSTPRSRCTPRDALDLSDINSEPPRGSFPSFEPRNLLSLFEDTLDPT
How it was run: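 Confluent OVCAR 3 cells treated with a compound concentration range for 20 h at 37 °C. Lysates analysed by automated capillary immunoblot for CDK1 phospho-T14, with vinculin, fluorescence detection; IC50 by regression.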

Human PKMYT1 = biological target: T3, Human PKMYT1 (Homo sapiens, UniProt Q99640); test: PKMYT1 biochemical ADP-Glo enzymatic assay; settings: PKMYT1 kinase domain 15 nM; ADP-Glo; banded values
T3 construct: Human PKMYT1 75-362 was cloned as a TEV cleavable 6xHis fusion; 6xHis (TEV cleavable) (cleaved yes); made in house; host or cells: bacterial cells
T3 sequence (Q99640 75-362): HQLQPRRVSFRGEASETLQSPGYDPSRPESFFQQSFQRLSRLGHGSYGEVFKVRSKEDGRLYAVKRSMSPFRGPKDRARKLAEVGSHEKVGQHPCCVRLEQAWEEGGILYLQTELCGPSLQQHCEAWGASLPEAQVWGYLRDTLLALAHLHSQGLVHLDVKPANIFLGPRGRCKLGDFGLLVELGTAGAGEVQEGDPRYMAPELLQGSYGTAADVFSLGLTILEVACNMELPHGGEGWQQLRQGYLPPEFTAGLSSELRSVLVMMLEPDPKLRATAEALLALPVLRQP
How it was run: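 Intrinsic ATPase activity of E. coli-expressed, tag-cleaved human PKMYT1 kinase domain (75-362), 15 nM, with 500 µM ATP in HEPES pH 7.5/MgCl2/EGTA/Brij-35, 1% DMSO, 60 min at 26 °C. ADP formed was read by ADP-Glo Max luminescence; IC50 from 10-point, 3-fold dilution curves.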

| SMILES | IC50 (WEE1) [nM] | PKMYT1 vs. WEE1 selectivity (WEE1) | IC50 [1] [nM] | IC50 (Human PKMYT1) [nM] | Selectivity ratio KYSE30 Gl50 vs. OVCAR3 Gl50 (OVCAR 3 cells) | GI50 (KYSE-30 cells) [nM] |
| --- | --- | --- | --- | --- | --- | --- |
| Cc1cn(CC2CCOC2)nc1Nc1ncc(C(=O)Nc2c(C)ccc(O)c2C)s1 (stereo not drawn) [BAA-543] | 1000 to 11000 | W (10-<100 fold) | < 100 | < 50 | Y (>20 fold) | > 5000 |
| Cc1ccc(O)c(C)c1NC(=O)c1cnc(Nc2nn(CC(=O)N3CCCC3)cc2Cl)s1 [BAA-546, 2-((4-chloro-1-(2-oxo-2-(pyrrolidin-1-yl)ethyl)-1H-pyrazol-3-yl)amino)-N-(3-hydroxy-2,6-dimethylphenyl)thiazole-5-carboxamide] | 1000 to 11000 | X (100-<1000 fold) | < 100 | < 50 | Y (>20 fold) | > 5000 |
| CCN(CCOC)C(=O)Cn1cc(C)c(Nc2ncc(C(=O)Nc3c(C)ccc(O)c3C)s2)n1 [BAA-550, 2-((1-(2-(ethyl(2-methoxyethyl)amino)-2-oxoethyl)-4-methyl-1H-pyrazol-3-yl)amino)-N-(3-hydroxy-2,6-dimethylphenyl)thiazole-5-carboxamide] | 1000 to 11000 | X (100-<1000 fold) | < 100 | < 50 | Y (>20 fold) | > 5000 |
| CCN(C(=O)Cn1cc(C)c(Nc2ncc(C(=O)Nc3c(C)ccc(O)c3C)s2)n1)C1CC1 [BAA-551, 2-((1-(2-(cyclopropyl(ethyl)amino)-2-oxoethyl)-4-methyl-1H-pyrazol-3-yl)amino)-N-(3-hydroxy-2,6-dimethylphenyl)thiazole-5-carboxamide] | 1000 to 11000 | X (100-<1000 fold) | < 100 | < 50 | Y (>20 fold) | 500 to 5000 |
| Cc1cn(CC(=O)N(C)C2CC2)nc1Nc1ncc(C(=O)Nc2c(C)ccc(O)c2C)s1 [BAA-554, 2-((1-(2-(cyclopropyl(methyl)amino)-2-oxoethyl)-4-methyl-1H-pyrazol-3-yl)amino)-N-(3-hydroxy-2,6-dimethylphenyl)thiazole-5-carboxamide] | 1000 to 11000 | X (100-<1000 fold) | < 100 | < 50 | Y (>20 fold) | > 5000 |
| CCN(CC)C(=O)Cn1cc(Cl)c(Nc2ncc(C(=O)Nc3c(C)ccc(O)c3C)s2)n1 [BAA-560, 2-((4-chloro-1-(2-(diethylamino)-2-oxoethyl)-1H-pyrazol-3-yl)amino)-N-(3-hydroxy-2,6-dimethylphenyl)thiazole-5-carboxamide] | 1000 to 11000 | X (100-<1000 fold) | < 100 | < 50 | Y (>20 fold) | 500 to 5000 |
| Cc1cn(CCF)nc1Nc1ncc(C(=O)Nc2c(C)ccc(O)c2Br)s1 [BAA-565, N-(2-bromo-3-hydroxy-6-methylphenyl)-2-((1-(2-fluoroethyl)-4-methyl-1H-pyrazol-3-yl)amino) thiazole-5-carboxamide] | 1000 to 11000 | X (100-<1000 fold) | < 100 | < 50 | Y (>20 fold) | > 5000 |
| Cc1ccc(O)c(C)c1NC(=O)c1cnc(Nc2n[nH]cc2Cl)s1 [BAA-566, 2-((4-chloro-1H-pyrazol-3-yl)amino)-N-(3-hydroxy-2,6-dimethylphenyl)thiazole-5-carboxamide] | 1000 to 11000 | X (100-<1000 fold) | < 100 | < 50 | Y (>20 fold) | > 5000 |
| Cc1ccc(O)c(C)c1NC(=O)c1cnc(Nc2nn(CC(F)F)cc2Cl)s1 [BAA-569, 2-((4-chloro-1-(2,2-difluoroethyl)-1H-pyrazol-3-yl)amino)-N-(3-hydroxy-2,6-dimethylphenyl)thiazole-5-carboxamide] | 1000 to 11000 | X (100-<1000 fold) | < 100 | < 50 | Y (>20 fold) | 500 to 5000 |

The next lines start with results.

| IC50 (WEE1) [nM] | PKMYT1 vs. WEE1 selectivity (WEE1) | IC50 [1] [nM] | IC50 (Human PKMYT1) [nM] | SMILES | Selectivity ratio KYSE30 Gl50 vs. OVCAR3 Gl50 (OVCAR 3 cells) | GI50 (KYSE-30 cells) [nM] |
| --- | --- | --- | --- | --- | --- | --- |
| 1000 to 11000 | X (100-<1000 fold) | < 100 | < 50 | Cc1cn(C(C)C(=O)N2CCCC2)nc1Nc1ncc(C(=O)Nc2c(C)ccc(O)c2C)s1 (stereo not drawn) [BAA-488, N-(3-hydroxy-2,6-dimethylphenyl)-2-((4-methyl-1-(1-oxo-1-(pyrrolidin-1-yl)propan-2-yl)-1H-pyrazol-3-yl)amino)thiazole-5-carboxamide] | Y (>20 fold) | > 5000 |
| 1000 to 11000 | X (100-<1000 fold) | < 100 | < 50 | Cc1cn(CC(=O)N2CCCC2C(F)(F)F)nc1Nc1ncc(C(=O)Nc2c(C)ccc(O)c2C)s1 (stereo not drawn) [BAA-493, N-(3-hydroxy-2,6-dimethylphenyl)-2-((4-methyl-1-(2-oxo-2-(2-(trifluoromethyl)pyrrolidin-1-yl)ethyl)-1H-pyrazol-3-yl)amino)thiazole-5-carboxamide] | Y (>20 fold) | > 5000 |
| 1000 to 11000 | X (100-<1000 fold) | 100 to 1000 | < 50 | Cc1cn(CC(=O)N2CCC(C(F)(F)F)C2)nc1Nc1ncc(C(=O)Nc2c(C)ccc(O)c2C)s1 (stereo not drawn) [BAA-504, N-(3-hydroxy-2,6-dimethylphenyl)-2-((4-methyl-1-(2-oxo-2-(3-(trifluoromethyl)pyrrolidin-1-yl)ethyl)-1H-pyrazol-3-yl)amino)thiazole-5-carboxamide] | Y (>20 fold) | > 5000 |
| 1000 to 11000 | X (100-<1000 fold) | < 100 | < 50 | CCN(CC)C(=O)C(C)n1cc(C)c(Nc2ncc(C(=O)Nc3c(C)ccc(O)c3C)s2)n1 (stereo not drawn) [BAA-510, 2-((1-(1-(diethylamino)-1-oxopropan-2-yl)-4-methyl-1H-pyrazol-3-yl)amino)-N-(3-hydroxy-2,6-dimethylphenyl)thiazole-5-carboxamide] | Y (>20 fold) | > 5000 |
| 50 to 1000 | W (10-<100 fold) | < 100 | < 50 | Cc1ccc(O)c(C)c1NC(=O)c1cnc(Nc2cc(N3CCOCC3)ncn2)s1 [BAA-571, N-(3-hydroxy-2,6-dimethylphenyl)-2-((6-morpholinopyrimidin-4-yl)amino)thiazole-5-carboxamide] | Y (>20 fold) | 500 to 5000 |
| 50 to 1000 | W (10-<100 fold) | < 100 | < 50 | Cc1nc(Nc2ncc(C(=O)Nc3c(C)ccc(O)c3C)s2)cc(N2CCOCC2)n1 [BAA-572, N-(3-hydroxy-2,6-dimethylphenyl)-2-((2-methyl-6-morpholinopyrimidin-4-yl)amino)thiazole-5-carboxamide] | Y (>20 fold) | 500 to 5000 |
